Reference: US11872262B2, “Means and methods for treating bacterial infections” (VIB VZW, priority 2017, dated 2024)
Residues, ends and D or L forms follow the SMILES beside them.

Experiment: Solubility of peptide after ultracentrifugation
Format: physicochemical
Settings: 30 min after dissolving
Protocol: FIG. 1: Activity, cytotoxicity and aggregation of antibacterial aggregating peptides. (A) Time-killing curve of selected peptides against E. coli strain O157 treated at MIC concentration (average and s.d. of 3 replicates). (B, C, D) Transmission electron microcopy (TEM) of cross-sections of E. coli O157 embedded in resin. B is mock treated, C is P2- and D is P105-treated E. coli O157 (2 h). […] (F) Concentration-dependent hemolysis of human erythrocytes by selected peptides (average and s.d. of 3 replicates). (G) Cytoxicity of Colpeptin1 to human HeLa cells measured by CellTiter Blue assay (average and s.d. of 3 replicates) and (H) by LDH release assay (average and s.d. of 3 replicates). […] Data are from a single experiment that was replicated 3 times (J) Histogram of the size distribution of particles calculated from the DLS data recorded of freshly dissolved colpeptin1 using a linear polymer as particle model. […] (M) Fluorescence intensity of the amyloid-specific dye pFTAA added to preparation of colpeptin1, normalised to the intensity observed with amyloid fibrils of the Alzheimer beta-peptide at the same concentration in monomeric units (average and s.d. of 3 replicates). […] (0) Aggregation kinetics of Colpeptin1 monitored by pFTAA fluorescence in the presence of 1 mM hexaphosphate (average and s.d. of 4 replicates). […]

CC(C)C[C@H](NC(=O)CNC(=O)[C@H](CCCNC(=N)N)NC(=O)[C@@H]1CCCN1C(=O)[C@H](CCCNC(=N)N)NC(=O)[C@H](CCCNC(=N)N)NC(=O)[C@@H](NC(=O)[C@H](CC(C)C)NC(=O)[C@H](C)NC(=O)[C@H](CC(C)C)NC(=O)CNC(=O)[C@H](CC(C)C)NC(=O)CNC(=O)[C@@H](N)CCCNC(=N)N)C(C)C)C(=O)NCC(=O)N[C@@H](CC(C)C)C(=O)N[C@@H](C)C(=O)N[C@@H](CC(C)C)C(=O)N[C@H](C(=O)N[C@@H](CCCNC(=N)N)C(=O)N[C@@H](CCCNC(=N)N)C(=O)O)C(C)C [Peptide P2] (H-RGLGLALVRRPRGLGLALVRR-OH)
peptide remaining in solution: less than 60%
